# “Also recorded” adds a separate entry of the source.
# Legend:
# fibromyalgia = settings: cited from earlier work
# [1] = in vivo; cited from earlier work
# [2] = test system: patients with fibromyalgia and insulin resistance; assay: Retrospective review of Numeric Pain Rating Scale (NPRS) pain scores before and after treatment; assay type: in vivo, human
# Protocol: Data was obtained from the review of various patient populations as followed: First, the pain scores of two populations of patients were reviewed. Group 1 consisted of 16 patients with fibromyalgia and insulin resistance (HbA1c values of 5.7 or higher) who were prescribed metformin 500 mg twice a day for insulin resistance. In this group, metformin had been added to the “standard treatment” for fibromyalgia. The “standard treatment” (ST) consisted of norepinephrine reuptake inhibitors (amitriptyline, duloxetine or milnacipran) and/or membrane-stabilizing agents (gabapentin or pregabalin). […]
# Second, the pain scores of another group of patients with insulin resistance and fibromyalgia, Group 2, who had been treated with […], a class of drugs that reduce insulin resistance by a mechanism different from metformin were analyzed. […]
# Because peripheral neuropathies (including small fiber neuropathy) that are associated with insulin resistance may start at very early stages of pre-diabetes, there is a growing trend among experts to begin early pharmacological interventions to correct this abnormality, particularly when insulin resistance is associated with neuropathy or other risk factors. […] Pain scores were routinely recorded by the Numeric Pain Rating Scale (NPRS), at each clinical encounter. […]
Compound,NNT (numbers needed to treat) (fibromyalgia),individuals intolerant to metformin [1],"change in pain scores (NPRS), in words ([2]; Group 2, 10 patients: 5 metformin alone, 5 PPD-4 inhibitor alone, no ST)","retention of the analgesic effect ([2]; long-term, refers to a Table 3 that is not given)"
CN(C)CCC=C1c2ccccc2CCc2ccccc21 [amitriptyline],4,,,
CNCC[C@H](Oc1cccc2ccccc12)c1cccs1 [duloxetine],6,,,
CN(C)C(=N)N=C(N)N [metformin],,at least 20%,comparable reductions in pain scores; also recorded: this improvement was only partial,long-term retention of the analgesic effect

# — US20200237875A1, “FORMULATIONS AND METHODS FOR TREATMENT OF FIBROMYALGIA AND RELATED MYOFASCIAL PAIN DISORDERS” (SYNLEV PHARMACEUTICALS CORPORATION, priority 2019, published 2020)
